≈ marks a conversion by molar mass, not a printed value. Read-outs that look alike come from different tables or passages of the source.
Key:
[1] = ester bond
[2] = tested on: Spn1537 S. pneumoniae ermB positive mefA positive; test: broth dilution MIC, S. pneumoniae Spn1537; format: cell-based; conditions: Streptococcus pneumoniae
Summary of the method: (§1)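 Antibacterial activity is reported as MIC by CLSI broth dilution. Panel strains were chosen with a focus on macrolide-resistance mechanisms. Azithromycin control included.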

S. aureus strains = test: MIC against S. aureus strains (Table M7); format: cell-based; conditions: for MIC: Staphylococcus aureus
Summary of the method: as §1

E. coli (MC4100) = test: MIC, E. coli MC4100; format: cell-based; conditions: Escherichia coli, round 2, read-out: MIC
Summary of the method: as §1

[3] = tested on: SA101 S. aureus ATCC29213; test: broth dilution MIC, S. aureus SA101; format: cell-based; conditions: Staphylococcus aureus, ATCC29213, SA101 S. aureus ATCC29213; read-out: MIC
Summary of the method: as §1

[4] = tested on: Spn1533 S. pneumoniae ermB positive mefA positive; test: broth dilution MIC, S. pneumoniae Spn1533; format: cell-based; conditions: Streptococcus pneumoniae
Summary of the method: as §1

[5] = tested on: SA557 S. aureus ermA unknown msrA positive; test: broth dilution MIC, S. aureus SA557; format: cell-based; conditions: Staphylococcus aureus; SA557 S. aureus ermA unknown msrA positive; read-out: MIC
Summary of the method: as §1

BS1725 B. subtilis ermC = test: broth dilution MIC, B. subtilis BS1725; format: cell-based; conditions: Bacillus subtilis
Summary of the method: as §1

[6] = tested on: SA1707 S. aureus ermA negative msrA positive; test: broth dilution MIC, S. aureus SA1707; format: cell-based; conditions: Staphylococcus aureus
Summary of the method: as §1

EC878 E. coli tolC = test: broth dilution MIC, E. coli EC878; format: cell-based; conditions: Escherichia coli
Summary of the method: as §1

EC107 E. coli ATCC25922 = test: broth dilution MIC, E. coli EC107; format: cell-based; conditions: Escherichia coli, read-out: MIC
Summary of the method: as §1

[7] = tested on: HI175 H. influenzae ATCC49247; test: broth dilution MIC, H. influenzae HI175; format: cell-based; conditions: Haemophilus influenzae
Summary of the method: as §1

[8] = tested on: SA506 S. aureus ermA positive msrA unknown; test: broth dilution MIC, S. aureus SA506; format: cell-based; conditions: Staphylococcus aureus
Summary of the method: as §1

[9] = tested on: Spn1509 S. pneumoniae ermB positive mefA negative; test: broth dilution MIC, S. pneumoniae Spn1509; format: cell-based; conditions: Streptococcus pneumoniae
Summary of the method: as §1

[10] = tested on: Spn 106 S. pneumonia ATCC49619; test: broth dilution MIC, S. pneumoniae Spn 106; format: cell-based; conditions: Streptococcus pneumoniae, ATCC49619
Summary of the method: as §1

[11] = tested on: SA418 S. aureus ermA negative msrA positive; test: broth dilution MIC, S. aureus SA418; format: cell-based; conditions: Staphylococcus aureus
Summary of the method: as §1

[12] = tested on: SA1708 S. aureus ermA positive msrA negative; test: broth dilution MIC, S. aureus SA1708; format: cell-based; conditions: Staphylococcus aureus
Summary of the method: as §1

HI281 H. influenzae = test: broth dilution MIC, H. influenzae HI281; format: cell-based; conditions: Haemophilus influenzae
From the text: We have collected MIC data for a total of 50 novel macrolides that this platform has produced against over 21 unique strains of B. subtilis, E. coli, S. aureus, S. pneumoniae, and H. influenzae, including several multidrug-resistant strains, with a special focus on macrolide resistant mechanisms (vide supra). Azithromycin was included as a control macrolide. CLSI standard procedures for broth dilution MIC determination were used. […] These genotypes can be constitutive or inducible. The finding that C4-epi (unnatural) isomers of the “azaketolide” macrolide class have enhanced activities relative to C4 natural isomers is very exciting.

E. faecalis strains = test: MIC against E. faecalis strains (Table M8); format: cell-based
[13] = tested on: Spn160 S. pneumoniae ermB unknown mefA positive; test: broth dilution MIC, S. pneumoniae Spn160; format: cell-based; conditions: Streptococcus pneumoniae; Spn160 S. pneumoniae ermB unknown mefA positive; read-out: MIC
Summary of the method: as §1

K. pneumoniae strains = test: MIC against K. pneumoniae strains (Table M8); format: cell-based; conditions: Klebsiella pneumoniae, K. pneumoniae 10031
[14] = tested on: S. aureus (Newman, clinical isolate); test: MIC, S. aureus Newman; format: cell-based; conditions: Staphylococcus aureus, S. aureus (Neuman, clinical isolate), round 2
Summary of the method: as §1

H. influenzae strains = test: MIC against H. influenzae strains (Table M8); format: cell-based; conditions: Haemophilus influenzae
Summary of the method: as §1

E. coli strains = test: MIC against E. coli strains (Table M7); format: cell-based; conditions: Escherichia coli, ATCC25922, E. coli ATCC 25922
Summary of the method: as §1

S. pneumoniae strains = test: MIC against S. pneumoniae strains (Tables M7, M8); format: cell-based; conditions: Streptococcus pneumoniae
From the text: CLSI standard procedures for broth dilution MIC determination were used. […] These genotypes can be constitutive or inducible.

EC882 E. coli imp = test: broth dilution MIC, E. coli EC882; format: cell-based; conditions: Escherichia coli
Summary of the method: as §1

[15] = tested on: BS1723 B. subtilis BS168 WT wild type; test: broth dilution MIC, B. subtilis BS1723; format: cell-based; conditions: Bacillus subtilis, BS1723 B. subtilis BS168 WT wild type; read-out: MIC
Summary of the method: as §1

[16] = tested on: Spn1427 S. pneumoniae ermB positive mefA negative; test: broth dilution MIC, S. pneumoniae Spn1427; format: cell-based; conditions: Streptococcus pneumoniae
Summary of the method: as §1

[17] = tested on: SA183 S. aureus ermA positive msrA unknown; test: broth dilution MIC, S. aureus SA183; format: cell-based; conditions: Staphylococcus aureus
Summary of the method: as §1

`CC[C@H]1OC(=O)CC(=O)[C@H](C)[C@@H](O[C@@H]2OC(C)CC(N(C)C)C2OC(=O)OC)[C@](C)(OC)C[C@@H](C)CN[C@H](C)[C@H]2N(CCCCN=[N+]=[N-])C(=O)O[C@]12C` (some centres unmarked) gave a ring closure, yield of all isomers ([1]; from CC[C@@H](O)[C@@]1(C)OC(=O)N(CCCCN=[N+]=[N-])[C@@H]1[C@@H](C)NC[C@H](C)C[C@@](C)(OC)[C@H](O[C@@H]1OC(C)CC(N(C)C)C1OC(=O)OC)[C@@H](C)C(=O)CC(=O)OC(C)(C)C, benzene, 9.08 mM, 80.0 °C, 12.0 h) of 84%.

Work on `CC[C@H]1OC(=O)[C@H](C)C(=O)[C@H](C)[C@@H](O[C@@H]2OC(C)CC(N(C)C)C2OC(=O)OC)[C@](C)(OC)C[C@@H](C)CN[C@H](C)[C@H]2N(CCCCN=[N+]=[N-])C(=O)O[C@]12C` (some centres unmarked) yielded a ring closure, yield of all isomers ([1]; from CC[C@@H](O)[C@@]1(C)OC(=O)N(CCCCN=[N+]=[N-])[C@@H]1[C@@H](C)NC[C@H](C)C[C@@](C)(OC)[C@H](O[C@@H]1OC(C)CC(N(C)C)C1OC(=O)OC)[C@@H](C)C1=C(C)C(=O)OC(C)(C)O1, toluene, 3.97 mM, 111.0 °C, 40.0 h) of 92%.

In the case of `CC[C@H]1OC(=O)[C@H](C)[C@@H](O[C@H]2C[C@@](C)(OC)[C@@H](O)[C@H](C)O2)[C@H](C)[C@@H](O[C@@H]2O[C@H](C)C[C@H](N(C)C)[C@H]2O)[C@](C)(O)C[C@@H](C)CN(C)[C@H](C)[C@@H](O)[C@]1(C)O` [Azithromycin, reference compound], the MIC [2] is reported as > 32 mg/L, the “MIC S. aureus (ATCC 29213)” value (S. aureus strains; S. aureus ATCC 29213) is reported as 1 mg/L (≈ 1.34 µM) and the MIC (S. aureus strains; ATCC29213, S. aureus ATCC 29213, read-out: MIC S. aureus (ATCC 29213)) is reported as 2 mg/L (≈ 2.67 µM). For the same compound, the MIC (S. aureus strains; S. aureus 183, read-out: MIC S. aureus (183)) was > 32 mg/L, the MIC (S. aureus strains; S. aureus 506, read-out: MIC S. aureus (506)) was > 32 mg/L and the MIC (S. aureus strains; S. aureus 1708, read-out: MIC S. aureus (1708)) was > 32 mg/L. The MIC (S. aureus strains; USA300, S. aureus USA300, read-out: MIC S. aureus (USA300)) was > 32 mg/L, the MIC (E. coli (MC4100)) was 8 mg/L (≈ 10.7 µM) and the MIC [3] was 1 to 2 mg/L (≈ 1.34 to 2.67 µM). For the same compound, the MIC [4] was > 32 mg/L, the MIC [5] was > 32 mg/L and the MIC (BS1725 B. subtilis ermC; BS1725 B. subtilis ermC (+ery)) was > 32 mg/L. The MIC (BS1725 B. subtilis ermC; BS1725 B. subtilis ermC (−ery)) was > 32 mg/L, the MIC [6] was > 32 mg/L and the MIC (EC878 E. coli tolC) was 0.5 mg/L (≈ 0.668 µM). The MIC (EC107 E. coli ATCC25922) was 4 mg/L (≈ 5.34 µM), the MIC [7] was 2 mg/L (≈ 2.67 µM) and the MIC [8] was > 32 mg/L. The MIC [9] was > 32 mg/L, the MIC [10] was 0.0625 mg/L (≈ 0.0834 µM) and the MIC [11] was > 32 mg/L. The MIC [12] was > 32 mg/L, the MIC (HI281 H. influenzae) was 4 mg/L (≈ 5.34 µM) and the “MIC E. faecalis (29212)” value (E. faecalis strains) was 16 mg/L (≈ 21.4 µM). It also gave an MIC (E. faecalis strains; Enterococcus faecalis, E. faecalis 29212) of 8 mg/L (≈ 10.7 µM), an MIC [13] of 2 mg/L (≈ 2.67 µM) and an MIC (K. pneumoniae strains) of 2 mg/L (≈ 2.67 µM). It also gave an MIC [14] of 1 mg/L (≈ 1.34 µM), an MIC (H. influenzae strains; H. influenzae 49247, read-out: MIC H. influenzae (49247)) of 0.25 mg/L (≈ 0.334 µM) and an MIC (H. influenzae strains; H. influenzae 49766, read-out: MIC H. influenzae (49766)) of 2 mg/L (≈ 2.67 µM). For the same compound, the MIC (E. coli strains) was 8 mg/L (≈ 10.7 µM), the MIC (S. pneumoniae strains; S. pneumoniae 160, read-out: MIC S. pneumonae (160)) was 2 mg/L (≈ 2.67 µM) and the MIC (S. pneumoniae strains; S. pneumoniae 1509, read-out: MIC S. pneumoniae (1509)) was > 32 mg/L. For the same compound, the MIC (S. pneumoniae strains; S. pneumoniae 1533, read-out: MIC S. pneumoniae (1533)) was > 32 mg/L, the MIC (S. pneumoniae strains; S. pneumoniae 1537, read-out: MIC S. pneumoniae (1537)) was > 32 mg/L and the MIC (EC882 E. coli imp) was 0.0625 mg/L (≈ 0.0834 µM). For the same compound, the MIC [15] was 0.5 mg/L (≈ 0.668 µM), the MIC [16] was > 32 mg/L and the MIC [17] was > 32 mg/L.
